Measured values reported in article PMC9668928, “Zandelisib (ME-401) in Japanese patients with relapsed or refractory indolent non-Hodgkin’s lymphoma: an open-label, multicenter, dose-escalation phase 1 study” (International Journal of Hematology, 2022).
“Also recorded” adds a separate entry of the source. Marks after values point to notes of the source that are not given here.

How the values were obtained:
PI3Kδ signaling pathway = tested on: PI3Kδ signaling pathway; set-up: method as in PMID 21378270, PMID 21803855, PMID 20959606, PMID 31506873; details: read-out: half maximal inhibitory concentration [IC50]; cited from earlier work
PI3Kδ = tested on: PI3Kδ; set-up: method as in PMID 21378270, PMID 21803855, PMID 20959606, PMID 31506873; details: cited from earlier work
[1] = Phase 1 study: plasma pharmacokinetics, non-compartmental analysis; assay type: in vivo, human; details: for pre-dose concentration, mean ± SD: 60 mg daily; for median tmax: after single and multiple doses
Excerpt: The primary endpoint was the safety [number of patients with treatment-emergent adverse events (TEAEs), based on Common Terminology Criteria for Adverse Events version 5.0] and tolerability (including laboratory values, vital signs, and electrocardiogram performance) of zandelisib in Japanese patients. Hepatobiliary disorder, aspartate/alanine (AST/ALT) increased, diarrhea/colitis, organizing pneumonia, stomatitis, or rash were defined as irAEs in this manuscript. Secondary endpoints included PK (plasma concentrations and PK parameters) and the efficacy of zandelisib. Blood samples for PK evaluation were collected at pre-dose, 1.5, 3, 5, 8, 10, 12 (optional), and 24 h post-dose on Cycle 1 day 1 and Cycle 2 day 1, and at pre-dose on Cycle 1 days 8, 15, and 22. The PK parameters for Cycle 1 day 1 and Cycle 2 day 1 were calculated for each patient by non-compartmental analysis. PK parameters included maximum plasma drug concentration (Cmax), area under the plasma concentration–time curve (AUC) from time zero to the last measurable point (AUC0–t), the AUC from time zero to infinity (AUC0-inf), and terminal half-life (t1/2).

basophil activation = tested on: basophil activation; set-up: method as in PMID 30458930; details: 60 mg/day; cited from earlier work

## CN1CCC(c2ccccc2CC(C)(C)Nc2nc(N3CCOCC3)nc(-n3c(C(F)F)nc4ccccc43)n2)CC1 [zandelisib]
PI3Kδ signaling pathway
  IC50: 0.6 nM
PI3Kδ
  target binding: > 5 h
[1]; 45 mg, Cycle 1 day 1, n = 2
  AUC0–inf, mean ± SD: 479 ± 112^c ng h/mL
  t1/2, mean ± SD: 12.5 ± 0.8^c h
[1]; 45 mg, Cycle 1 day 1, n = 3
  AUC0–t (24 h), mean ± SD: 304 ± 90 ng·h/mL
  Cmax, mean ± SD: 27.5 ± 11.0 ng/mL
  tmax, median (min–max): 3.00 (2.88–9.53) h
[1]; 45 mg, Cycle 2 day 1, n = 2
  t1/2, mean ± SD: 32.5 ± 10.3^c h
[1]; 45 mg, Cycle 2 day 1, n = 3
  AUC0–t (24 h), mean ± SD: 601 ± 171 ng·h/mL
  Cmax, mean ± SD: 46.4 ± 6.2 ng/mL
  tmax, median (min–max): 3.08 (2.95–7.98) h
[1]; Cycle 1 Day 8
  pre-dose concentration, mean ± SD: 25.2 ± 8.2 ng/mL
[1]; Cycle 1 Day 15
  pre-dose concentration, mean ± SD: 26.1 ± 9.6 ng/mL
[1]; Cycle 1 Day 22
  pre-dose concentration, mean ± SD: 28.2 ± 9.5 ng/mL
[1]; Cycle 2 Day 1
  pre-dose concentration, mean ± SD: 26.2 ± 13.1 ng/mL
[1]; 60 mg, Cycle 1 day 1, n = 6
  AUC0–inf, mean ± SD: 731 ± 331 ng·h/mL
  AUC0–t (24 h), mean ± SD: 435 ± 161 ng·h/mL
  Cmax, mean ± SD: 36.6 ± 13.2 ng/mL
  t1/2, mean ± SD: 16.4 ± 3.9 h
  tmax, median (min–max): 3.94 (3.00–7.83) h
[1]; 60 mg, Cycle 2 day 1, n = 5
  t1/2, mean ± SD: 23.5 ± 10.9^d h
[1]; 60 mg, Cycle 2 day 1, n = 6
  AUC0–t (24 h), mean ± SD: 974 ± 339 ng·h/mL
  Cmax, mean ± SD: 62.8 ± 19.4 ng/mL
  tmax, median (min–max): 4.96 (2.83–8.00) h
[1]; 45 and 60 mg
  dose proportionality of exposure (Cmax and AUC): generally dose proportional up to 60 mg/day
  exposures (Cmax and AUC) on Cycle 2 Day 1 versus Cycle 1 Day 1: 1.5–2 fold
[1]; 45 mg
  median tmax: 3 h
[1]; 60 mg
  median tmax: ~ 4.96 h
[1]; daily dosing
  time to PK steady state: PK reached steady state by Day 8; also recorded: reached steady state following 7 days of dosing
Basophil activation
  target inhibition at trough plasma concentrations: ≥ 90%
